As a reminder, the IC50 is the point on the concentration scale where inhibition reaches its midpoint.

For data set [1], the target named is T1, Lck-activated c-raf (Lck/c-raf) (Homo sapiens, UniProt P04049).
T1 construct: GST-c-raf (from amino acid 302 to amino acid 648) and Lck (full-length); made in house; host or cells: Sf9 insect cells (baculovirus, co-infected with Lck baculovirus)
The experiment in a line: c-raf (raf-1) biochemical assay. Particulars: in words. The procedure: The c-raf biochemical assay was performed with a c-raf enzyme that was activated (phosphorylated) by Lck kinase. Lck-activated c-raf (Lck/c-raf) was produced in Sf9 insect cells by co-infecting cells with baculoviruses expressing, under the control of the polyhedrin promoter, GST-c-raf (from amino acid 302 to amino acid 648) and Lck (full-length). Both baculoviruses were used at the multiplicity of infection of 2.5 and the cells were harvested 48 h post infection.
MEK-1 protein was produced in Sf9 insect cells by infecting cells with the baculovirus expressing GST-MEK-1 (full-length) fusion protein at the multiplicity of infection of 5 and harvesting the cells 48 hours post infection. Similar purification procedure was used for GST-c-raf 302-648 and GST-MEK-1.
Transfected cells were suspended at 100 mg of wet cell biomass per mL in a buffer containing 10 mM sodium phosphate, 140 mM sodium chloride pH 7.3, 0.5% Triton X-100 and the protease inhibitor cocktail. […]
Test compounds were serially diluted in DMSO using three-fold dilutions to stock concentrations ranging typically from 50 μM to 20 nM (final concentrations in the assay range from 1 μM to 0.4 nM). […] The filters were dried in a microwave, soaked in scintillation fluid and read in a Wallac 1205 Betaplate Counter (Wallac Inc., Atlanta, Ga., U.S.A.). The results were expressed as percent inhibition.

In a further data set the target is T2, p38 α2 (Homo sapiens, UniProt Q16539).
T2 construct: His; made in house; host or cells: E. coli
T2 sequence (Q16539 whole entry): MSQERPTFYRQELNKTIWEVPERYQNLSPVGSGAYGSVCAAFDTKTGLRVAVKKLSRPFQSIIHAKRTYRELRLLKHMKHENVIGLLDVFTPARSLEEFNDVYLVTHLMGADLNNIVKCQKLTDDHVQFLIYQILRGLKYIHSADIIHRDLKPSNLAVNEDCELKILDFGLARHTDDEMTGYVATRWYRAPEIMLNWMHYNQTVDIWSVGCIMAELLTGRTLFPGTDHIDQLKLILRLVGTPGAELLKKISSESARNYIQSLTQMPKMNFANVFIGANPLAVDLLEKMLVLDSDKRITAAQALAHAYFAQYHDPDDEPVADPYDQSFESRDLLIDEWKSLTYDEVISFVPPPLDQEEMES
The experiment in a line: p38 kinase in vitro assay. It counts as biochemical. Particulars: in words. The procedure:
Purified and His-tagged p38 α2 (expressed in E. Coli) was activated in vitro by MMK-6 to a high specific activity. Using a microtiter format, all reactions were conducted in 100 μL volumes with reagents diluted to yield 0.05 μg/well of activated p38 α2 and 10 μg/well of myelin basic protein in assay buffer (25 mM HEPES 7.4, 20 mM MgCl2, 150 mM NaCl). Test compounds (5 μL of a 10% DMSO solution in water) were prepared and diluted into the assay to cover a final concentration range from 5 nM to 2.5 μM. The kinase assay was initiated by addition of 25 μL of an ATP cocktail to give a final concentration of 10 μM cold ATP and 0.2 μCi [gamma-^33P] ATP per well (200-400 dpm/pmol of ATP). The plate was incubated at 32° C. for 35 min., and the reaction quenched with 7 μL of a 1 N aq HCl solution. The samples were harvested onto a P30 Filtermat (Wallac, Inc.) using a TomTec 1295 Harvester (Wallac, Inc.), and counted in a LKB 1205 Betaplate Liquid Scintillation Counter (Wallac, Inc.). Negative controls included substrate plus ATP alone. SW1353 cellular assay: SW1353 cells (human chondro-sarcoma) are seeded (1000 cells/100 μL DMEM 10% FCS/well) into 96-well plates and incubated overnight. […] Cultures are incubated for 48 h at 37° C., then supernatant IL-6 values are determined by ELISA.

Data set [2] deals with basal pERK in MDA-MB-231 cells. The experiment in a line: Bio-Plex phospho-ERK1/2 immunoassay. It counts as cell-based, human. On the procedure: A 96 well pERK immunoassay, using laser flow cytometry (Bio-Rad) platform has been established to measure inhibition of basal pERK in breast cancer cell line. MDA-MB-231 cells were plated at 50,000 cells per well in 96 well microtitre plates in complete growth media. For effects of test compounds on basal pERK1/2 inhibition, the next day after plating, MDA-MB-231 cells were transferred to DMEM with 0.1% BSA and incubated with test compounds diluted 1:3 to a final concentration of 3 μM to 12 nM in 0.1% DMSO. Cells were incubated with test compounds for 2 h, washed, and lysed in Bio-Plex whole cell lysis buffer A. Samples are diluted with buffer B 1:1 (v/v) and directly transferred to assay plate or frozen at −80 C. degrees until processed. 50 μL of diluted MDA-MB-231 cell lysates were incubated with about 2000 of 5 micron Bio-Plex beads conjugated with an anti-ERK1/2 antibody overnight on a shaker at room temperature. The next day, biotinylated phospho-ERK1/2 sandwich immunoassay was performed, beads are washed 3 times during each incubation and then 50 μL of PE-strepavidin was used as a developing reagent. The relative fluorescence units of pERK1/2 were detected by counting 25 beads with Bio-Plex flow cell (probe) at high sensitivity. The IC50 was calculated by taking untreated cells as maximum and no cells (beads only) as background using in an Excel spreadsheet based program.

Data set [3] can be described thus: Metabolite profile, incubation of [14C]regorafenib with liver microsomes (rat). It counts as in vitro ADME, Wistar rat. As to conditions: [14C]regorafenib 20 μM, liver microsomes 0.5 mg/mL, 60 min. On the procedure: (§1) N-oxide (M-2), hydroxymethyl (M-3), de-methylated (M-4) and N-oxide-demethylated (M-5) metabolites of the fluoro-substituted diaryl urea of Formula (I) are shown below. They were identified as metabolites of regorafenib in vitro upon incubation with liver enzymes of various mammalian species (man, dog, rat, mouse). Studies reveal that its metabolites show high protein binding in man and animal species (data not shown). [table]

Data set [4] in a line: Metabolite profile, incubation of [14C]regorafenib with liver microsomes (mouse). Format: in vitro ADME, NMRI mouse. As to conditions: [14C]regorafenib 20 μM, liver microsomes 0.5 mg/mL, 60 min. On the procedure:
as §1

T1 sequence (P04049 302-648): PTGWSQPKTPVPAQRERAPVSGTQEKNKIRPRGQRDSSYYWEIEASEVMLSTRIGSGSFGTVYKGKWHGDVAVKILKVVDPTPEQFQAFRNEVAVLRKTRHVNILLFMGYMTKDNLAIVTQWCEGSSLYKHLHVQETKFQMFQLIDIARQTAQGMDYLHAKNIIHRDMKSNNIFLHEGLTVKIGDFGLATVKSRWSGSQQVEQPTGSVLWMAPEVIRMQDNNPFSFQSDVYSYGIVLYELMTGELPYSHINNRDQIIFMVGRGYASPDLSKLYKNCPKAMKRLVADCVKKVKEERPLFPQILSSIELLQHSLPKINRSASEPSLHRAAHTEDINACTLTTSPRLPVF

With `CNC(=O)c1cc(Oc2ccc(NC(=O)Nc3ccc(Cl)c(C(F)(F)F)c3)c(F)c2)ccn1` [Example 1, 4{4-[3-(4-chloro-3-trifluoromethylphenyl)-ureido]-3-fluorophenoxy}-pyridine-2-carboxylic acid methylamide], in data set [1], the “inhibition of raf kinase” value was “potent inhibition”. The “inhibition of p38 kinase” value against p38 α2 is reported as “significant inhibition”. In data set [2] (Homo sapiens, MDA-MB-231 cells, 2 h), the IC50 came out at 22 nM. Further, in data set [2] (in words), the “inhibition of basal pERK” value is “significant inhibition”. The “% of radioactivity, Wistar rat” value in data set [3] was determined as 75.7%. Also, in data set [4], the “% of radioactivity, NMRI mouse” value is recorded as 57.8%.

Values taken from patent US20130183268A1, “DRUG COMBINATIONS WITH FLUORO-SUBSTITUTED OMEGA-CARBOXYARYL DIPHENYL UREA FOR THE TREATMENT AND PREVENTION OF DISEASES AND CONDITIONS” (BAYER HEALTHCARE LLC, priority 2010, published 2013).
